Results taken from patent US7998965B2, “Glutamate aggrecanase inhibitors” (Wyeth LLC, priority 2005, dated 2011).
Where two headings read alike, the source gives them in different places.

Legend:
[1] = molecular target: T1, purified recombinant human Aggrecanase-2 (Ag2t-Phe628-Strep) (Homo sapiens, UniProt Q9UNA0); test: In vitro fluorescence screen for Aggrecanase-2 inhibitors; type: biochemical; details: for IC50: read-out: Agg 2 IC50
T1 construct: the form used is denoted as Ag2t-Phe628-Strep (MW=41,737)
T1 sequence (Q9UNA0 262-628): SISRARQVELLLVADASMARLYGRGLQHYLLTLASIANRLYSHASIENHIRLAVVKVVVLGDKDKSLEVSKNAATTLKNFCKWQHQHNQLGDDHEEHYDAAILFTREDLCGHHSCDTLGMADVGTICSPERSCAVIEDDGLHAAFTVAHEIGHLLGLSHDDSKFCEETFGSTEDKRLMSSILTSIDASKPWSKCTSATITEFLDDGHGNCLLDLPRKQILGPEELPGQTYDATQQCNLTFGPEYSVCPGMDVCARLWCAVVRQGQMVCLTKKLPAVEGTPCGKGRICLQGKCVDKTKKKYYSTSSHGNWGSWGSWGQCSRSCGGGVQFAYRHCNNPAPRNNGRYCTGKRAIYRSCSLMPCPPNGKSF

[2] = molecular target: T2, purified recombinant human Aggrecanase-1 (rAgg1) (Homo sapiens, UniProt O75173); test: In vitro fluorescence screen for Aggrecanase-1 inhibitors; type: biochemical; parameters: Agg1 % at concentration: scale not given here; details: for IC50: read-out: Agg1 IC50
T2 sequence (O75173 213-837): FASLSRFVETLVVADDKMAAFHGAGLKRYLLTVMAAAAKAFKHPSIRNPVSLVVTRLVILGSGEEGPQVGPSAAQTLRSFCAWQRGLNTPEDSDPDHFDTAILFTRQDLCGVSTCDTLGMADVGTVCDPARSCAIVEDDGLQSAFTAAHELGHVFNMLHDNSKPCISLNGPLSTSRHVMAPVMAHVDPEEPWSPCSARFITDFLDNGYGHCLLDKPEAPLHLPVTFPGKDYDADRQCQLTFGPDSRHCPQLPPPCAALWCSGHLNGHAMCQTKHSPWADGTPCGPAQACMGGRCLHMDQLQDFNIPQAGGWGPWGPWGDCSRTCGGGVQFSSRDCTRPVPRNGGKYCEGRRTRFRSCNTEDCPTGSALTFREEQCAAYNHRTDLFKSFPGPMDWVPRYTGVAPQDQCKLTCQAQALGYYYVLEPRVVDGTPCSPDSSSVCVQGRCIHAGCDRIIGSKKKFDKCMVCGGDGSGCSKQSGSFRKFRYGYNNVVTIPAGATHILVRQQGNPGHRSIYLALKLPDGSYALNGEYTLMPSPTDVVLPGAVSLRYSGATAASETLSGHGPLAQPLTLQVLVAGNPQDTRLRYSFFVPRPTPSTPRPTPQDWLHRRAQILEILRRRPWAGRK

Structure (SMILES)	IC50 ([1]; Table 3)	IC50 ([2]; Table 3)	IC50 ([1]; Table 2)	IC50 ([2]; Table 2)	further results
CC(C)(Cc1ccc(Cl)cc1)NC(=O)[C@H](CCC(=O)O)NC(=O)c1ccc(-c2cc(F)ccc2F)cc1 [Example 8BBBBBBB, N-[2-(4-chlorophenyl)-1,1-dimethylethyl]-N^2-[(2′,5′-difluorobiphenyl-4-yl)carbonyl]-L-α-glutamine]	1000 nM	110 nM	–	–	–
CC(C)(Cc1ccc(F)cc1)NC(=O)[C@H](CCC(=O)O)NC(=O)c1ccc(-c2ccc3c(c2)OCC3)cc1 [Example 8BBBBBBBB, N^2-[4-(2,3-dihydro-1-benzofuran-6-yl)benzoyl]-N-[2-(4-fluorophenyl)-1,1-dimethylethyl]-L-α-glutamine]	200 to 600 nM	300 nM	–	–	–
CC(C)(Cc1ccc(F)cc1)NC(=O)[C@H](CCC(=O)O)NC(=O)c1ccc(-c2cccs2)s1 [Example 8BBBBBBBBB, N^2-(2,2′-bithien-5-ylcarbonyl)-N-[2-(4-fluorophenyl)-1,1-dimethylethyl]-L-α-glutamine]	100 to 300 nM	< 30 nM	–	–	Ki ([1]; Table 3, read-out: Ki Agg2): 681 nM; Ki ([2]; Table 3, read-out: Ki Agg1): 11.5 nM
CC(C)(Cc1ccccc1)NC(=O)[C@H](CCC(=O)O)NC(=O)c1sccc1-c1ccccc1 [Example 8BBBBBBBBBB, N-(1,1-dimethyl-2-phenylethyl)-N^2-[(3-phenyl-2-thienyl)carbonyl]-L-α-glutamine]	> 200000 nM	22000 nM	–	–	–
CN(CCc1ccccc1)C(=O)[C@H](CCC(=O)O)NC(=O)c1ccc(-c2ccccc2)cc1 [Example 8CCCCCC, N^2-(biphenyl-4-ylcarbonyl)-N-methyl-N-(2-phenylethyl)-L-α-glutamine]	–	–	> 22000 nM	2400 nM	–
CC(C)(Cc1ccc(Cl)cc1)NC(=O)[C@H](CCC(=O)O)NC(=O)c1ccc(-c2c(F)cccc2F)cc1 [Example 8CCCCCCC, N-[2-(4-chlorophenyl)-1,1-dimethylethyl]-N^2-[(2′,6′-difluorobiphenyl-4-yl)carbonyl]-L-α-glutamine]	680 nM	50 nM	–	–	–
Cc1cccc(CNC(=O)[C@H](CCC(=O)O)NC(=O)c2ccc3c(c2)C(=O)c2ccccc2-3)c1 [Example 8DDDDD, N^1-(3-methylbenzyl)-N^2-[(9-oxo-9H-fluoren-2-yl)carbonyl]-L-α-glutamine]	–	–	1100 nM	315 nM	–
CN(CCc1ccccc1)C(=O)[C@H](CCC(=O)O)NC(=O)c1ccc2c(c1)Cc1ccccc1-2 [Example 8DDDDDD, N^2-(9H-fluoren-2-ylcarbonyl)-N-methyl-N-(2-phenylethyl)-L-α-glutamine]	–	–	> 22000 nM	2400 nM	–
CC(C)(Cc1ccc(Cl)cc1)NC(=O)[C@H](CCC(=O)O)NC(=O)c1ccc(-c2cc(F)cc(F)c2)cc1 [Example 8DDDDDDD, N-[2-(4-chlorophenyl)-1,1-dimethylethyl]-N^2-[(3′,5′-difluorobiphenyl-4-yl)carbonyl]-L-α-glutamine]	220 nM	< 30 nM	–	–	–
Cc1cccc(CNC(=O)[C@H](CCC(=O)O)NC(=O)C2c3ccccc3-c3ccccc32)c1 [Example 8EEEEE, N^2-(9H-fluoren-9-ylcarbonyl)-N^1-(3-methylbenzyl)-L-α-glutamine]	–	–	> 200000 nM	> 50000 nM	–
CC(C)(Cc1ccc(Cl)cc1)NC(=O)[C@H](CCC(=O)O)NC(=O)c1ccc(-c2cccc(F)c2F)cc1 [Example 8EEEEEEE, N-[2-(4-chlorophenyl)-1,1-dimethylethyl]-N^2-[(2′,3′-difluorobiphenyl-4-yl)carbonyl]-L-α-glutamine]	510 nM	37 nM	–	–	–
O=C(O)CC[C@H](NC(=O)c1ccc(-c2ccccc2)cc1)C(=O)NCCc1ccccc1 [Example 8FFF, N^2-(1,1′-biphenyl-4-ylcarbonyl)-N^1-(2-phenylethyl)-L-α-glutamine]	–	–	–	–	IC50 ([1]; Table 1): 1000 nM; IC50 ([2]; Table 1): 200 nM
CCCCN(C)C(=O)[C@H](CCC(=O)O)NC(=O)c1ccc2c(c1)Cc1ccccc1-2 [Example 8FFFFFF, N-butyl-N^2-(9H-fluoren-2-ylcarbonyl)-N-methyl-L-α-glutamine]	–	–	18100 nM	3900 nM	–
CC(C)(Cc1ccccc1)NC(=O)[C@H](CCC(=O)O)NC(=O)c1ccc(-c2cncnc2)cc1 [Example 8FFFFFFF, N-(1,1-dimethyl-2-phenylethyl)-N^2-(4-pyrimidin-5-ylbenzoyl)-L-α-glutamine]	4200 nM	200 nM	–	–	–
CC(C)(Cc1ccc(Cl)cc1)NC(=O)[C@H](CCC(=O)O)NC(=O)c1cccc(-c2ccc(Cl)s2)c1 [Example 8JJJJJJJJJ, N-[2-(4-chlorophenyl)-1,1-dimethylethyl]-N^2-[3-(5-chloro-2-thienyl)benzoyl]-L-α-glutamine]	–	–	–	–	Agg 2 % at concentration ([1]; Table 3, at 25000 (nM)): 10%; Agg1 % at concentration ([2]; Table 3, at 25000 (nM)): 25%
O=C(O)CC[C@H](NC(=O)c1ccc(-c2ccccc2)cc1)C(=O)NCCc1ccc(Br)cc1 [Example 8KKK, N^2-(biphenyl-4-ylcarbonyl)-N^1-[2-(4-bromophenyl)ethyl]-L-α-glutamine]	–	–	–	–	IC50 ([1]; Table 1): 2000 nM; IC50 ([2]; Table 1): 120 nM

Continued, in another order:

IC50 ([1]; Table 3)	IC50 ([2]; Table 3)	IC50 ([1]; Table 2)	IC50 ([2]; Table 2)	Structure (SMILES)	further results
160 nM	60 nM	–	–	CC(C)(Cc1ccccc1)NC(=O)[C@H](CCC(=O)O)NC(=O)c1ccc(-c2ccc(F)c(F)c2)cc1 [Example 8GGGGGGG, N^2-[(3′,4′-difluorobiphenyl-4-yl)carbonyl]-N-(1,1-dimethyl-2-phenylethyl)-L-α-glutamine]	–
–	–	46 nM	38 nM	CC(C)(Cc1ccc(F)cc1)NC(=O)[C@H](CCC(=O)O)NC(=O)c1ccc(-c2ccc3c(c2)OCO3)cc1 [Example 8HHHHHH, N^2-[4-(1,3-benzodioxol-5-yl)benzoyl]-N-[2-(4-fluorophenyl)-1,1-dimethylethyl]-L-α-glutamine]	–
180 nM	50 nM	–	–	CC(C)(Cc1ccccc1)NC(=O)[C@H](CCC(=O)O)NC(=O)c1ccc(-c2cc(F)cc(F)c2)cc1 [Example 8HHHHHHH, N^2-[(3′,5′-difluorobiphenyl-4-yl)carbonyl]-N-(1,1-dimethyl-2-phenylethyl)-L-α-glutamine]	–
–	–	1900 nM	813 nM	O=C(O)CC[C@H](NC(=O)c1ccc2c(c1)C(=O)c1ccccc1-2)C(=O)NCc1ccccc1 [Example 8IIIII, N^1-benzyl-N^2-[(9-oxo-9H-fluoren-2-yl)carbonyl]-L-α-glutamine]	–
–	–	11900 nM	2900 nM	COc1ccc(CCN(C)C(=O)[C@H](CCC(=O)O)NC(=O)c2ccc3c(c2)Cc2ccccc2-3)cc1OC [Example 8IIIIII, N-[2-(3,4-dimethoxyphenyl)ethyl]-N^2-(9H-fluoren-2-ylcarbonyl)-N-methyl-L-α-glutamine]	–
42 nM	< 30 nM	–	–	CC(C)(Cc1ccc(Cl)s1)NC(=O)[C@H](CCC(=O)O)NC(=O)c1ccc(-c2ccc(F)c(F)c2)cc1 [Example 8IIIIIII, N-[2-(5-chloro-2-thienyl)-1,1-dimethylethyl]-N^2-[(3′,4′-difluorobiphenyl-4-yl)carbonyl]-L-α-glutamine]	–
–	–	1100 nM	191 nM	O=C(O)CC[C@H](NC(=O)c1ccc2c(c1)Cc1ccccc1-2)C(=O)NCc1ccccc1 [Example 8JJJJJ, N^1-benzyl-N^2-(9H-fluoren-2-ylcarbonyl)-L-α-glutamine]	–
–	–	943 nM	300 nM	C[C@@H](CNC(=O)[C@H](CCC(=O)O)NC(=O)c1ccc2c(c1)Cc1ccccc1-2)c1ccccc1 [Example 8JJJJJJ, N^2-(9H-fluoren-2-ylcarbonyl)-N-[(2R)-2-phenylpropyl]-L-α-glutamine]	–
53 nM	< 30 nM	–	–	CC(C)(Cc1ccc(Cl)s1)NC(=O)[C@H](CCC(=O)O)NC(=O)c1ccc(-c2ccccc2)cc1 [Example 8JJJJJJJ, N^2-(biphenyl-4-ylcarbonyl)-N-[2-(5-chloro-2-thienyl)-1,1-dimethylethyl]-L-α-glutamine]	–
800 to 2500 nM	< 30 nM	–	–	CC(C)(Cc1ccc(Cl)cc1)NC(=O)[C@H](CCC(=O)O)NC(=O)c1ccc(-c2cccnc2)s1 [Example 8JJJJJJJJ, N-[2-(4-chlorophenyl)-1,1-dimethylethyl]-N^2-[(5-pyridin-3-yl-2-thienyl)carbonyl]-L-α-glutamine]	–
–	–	> 22000 nM	> 50000 nM	O=C(O)CC[C@H](NC(=O)C1c2ccccc2-c2ccccc21)C(=O)NCc1ccccc1 [Example 8KKKKK, N^1-benzyl-N^2-(9H-fluoren-9-ylcarbonyl)-L-α-glutamine]	–
